In paper PMC4742190, “Mitotic entry: Non-genetic heterogeneity exposes the requirement for Plk1” (Oncotarget, 2015):

How the values were obtained:
Experiment in all cases: enzyme (kinase) assay
Format in all cases: biochemical
Plk3 = Plk3 (Homo sapiens, UniProt Q9H4B4)
Plk2 = Plk2 (Homo sapiens, UniProt Q9NYY3)
Plk1 = Plk1 (Homo sapiens, UniProt P53350)
Sequence of Plk1 (P53350 2-603): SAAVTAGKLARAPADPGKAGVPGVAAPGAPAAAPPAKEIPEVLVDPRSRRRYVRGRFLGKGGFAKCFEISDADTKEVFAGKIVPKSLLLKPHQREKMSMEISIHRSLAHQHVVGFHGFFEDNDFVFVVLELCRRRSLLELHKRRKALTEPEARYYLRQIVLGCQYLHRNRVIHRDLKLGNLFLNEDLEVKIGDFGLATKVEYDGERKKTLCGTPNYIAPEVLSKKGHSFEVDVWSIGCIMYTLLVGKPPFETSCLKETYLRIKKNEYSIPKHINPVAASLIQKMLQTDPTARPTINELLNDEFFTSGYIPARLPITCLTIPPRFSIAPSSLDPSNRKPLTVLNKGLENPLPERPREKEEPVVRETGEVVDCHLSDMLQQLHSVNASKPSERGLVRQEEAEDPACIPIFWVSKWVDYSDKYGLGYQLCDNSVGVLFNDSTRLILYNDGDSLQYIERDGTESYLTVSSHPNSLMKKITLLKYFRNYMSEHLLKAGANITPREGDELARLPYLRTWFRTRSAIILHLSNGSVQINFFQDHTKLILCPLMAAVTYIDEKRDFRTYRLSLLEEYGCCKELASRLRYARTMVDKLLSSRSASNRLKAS

Sequence of Plk3 (Q9H4B4 whole entry): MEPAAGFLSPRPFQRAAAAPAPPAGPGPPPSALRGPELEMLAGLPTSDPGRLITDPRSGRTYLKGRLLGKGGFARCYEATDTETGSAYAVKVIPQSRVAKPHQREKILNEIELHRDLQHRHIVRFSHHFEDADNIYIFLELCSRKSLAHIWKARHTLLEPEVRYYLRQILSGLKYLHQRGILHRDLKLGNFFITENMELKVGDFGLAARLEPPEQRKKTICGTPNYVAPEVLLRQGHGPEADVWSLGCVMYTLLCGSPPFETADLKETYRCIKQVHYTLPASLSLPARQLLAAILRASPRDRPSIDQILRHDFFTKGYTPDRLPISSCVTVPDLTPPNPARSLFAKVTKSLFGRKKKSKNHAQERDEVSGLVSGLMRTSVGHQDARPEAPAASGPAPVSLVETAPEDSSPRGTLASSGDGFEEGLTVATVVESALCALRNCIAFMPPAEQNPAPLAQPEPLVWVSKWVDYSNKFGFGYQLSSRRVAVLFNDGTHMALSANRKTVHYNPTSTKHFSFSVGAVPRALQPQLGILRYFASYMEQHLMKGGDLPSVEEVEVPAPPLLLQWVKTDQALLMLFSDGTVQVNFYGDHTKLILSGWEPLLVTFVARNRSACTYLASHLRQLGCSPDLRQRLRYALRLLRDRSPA
Sequence of Plk2 (Q9NYY3 whole entry): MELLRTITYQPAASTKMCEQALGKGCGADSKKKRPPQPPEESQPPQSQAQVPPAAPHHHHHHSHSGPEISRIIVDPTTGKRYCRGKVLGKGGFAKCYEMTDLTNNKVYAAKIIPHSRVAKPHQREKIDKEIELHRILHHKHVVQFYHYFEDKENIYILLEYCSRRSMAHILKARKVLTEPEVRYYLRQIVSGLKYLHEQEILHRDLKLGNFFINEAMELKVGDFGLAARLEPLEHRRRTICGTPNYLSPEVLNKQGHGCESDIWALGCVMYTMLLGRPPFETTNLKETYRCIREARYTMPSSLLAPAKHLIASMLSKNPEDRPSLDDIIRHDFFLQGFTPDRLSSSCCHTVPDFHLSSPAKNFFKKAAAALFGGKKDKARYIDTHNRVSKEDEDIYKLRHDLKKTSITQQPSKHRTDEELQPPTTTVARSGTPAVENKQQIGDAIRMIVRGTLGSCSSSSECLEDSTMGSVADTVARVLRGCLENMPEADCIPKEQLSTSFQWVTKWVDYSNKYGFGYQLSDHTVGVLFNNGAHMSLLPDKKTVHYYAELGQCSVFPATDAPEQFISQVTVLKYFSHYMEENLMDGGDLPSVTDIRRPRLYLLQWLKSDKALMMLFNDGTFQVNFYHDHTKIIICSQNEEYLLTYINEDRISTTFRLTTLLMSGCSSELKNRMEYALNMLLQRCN

- IC50 (Plk3): 702 nM
- IC50 (Plk2): 113 nM
- IC50 (Plk1): 36 nM
Substance: CYC140844
